Test results from patent US6872562B2, “Herbicide resistant dinitrogen fixing bacteria and method of use” (priority 2001, dated 2005).

Experiments:
[1] = system: GR soybean cultivars A4501RR, A5901RR, DK5961RR, H5164RR, TV5866RR; test: Greenhouse Example 2: sensitivity of five GR soybean cultivars to glyphosate; type: in vivo, soybean (Glycine max); details: 40 DAE
Source text: The other plants were not treated and served as controls. […] The experiment was a completely random design with six replications.

[2] = system: GR soybean cultivar Terral TV5866RR; test: Greenhouse Example 1: biomass, nitrogen content and nodules of TV5866RR after postemergence glyphosate; type: in vivo, soybean (Glycine max); details: for Nodules per plant Run 1 / Individual nodule mass Run 2 / Nodules per plant Run 2 / Individual nodule mass Run 1: Harvest 2 (40 DAE)
Procedure: Seeds were planted in 15-cm pots with an approximate soil volume of 1.9 L. The potting medium was a nitrogen-free peat/vermiculite/perlite mixture (LB2, Sun Gro Horticulture Inc., 1830 Knob Hill, Garland, Tex. 75403). Soil was saturated with deionized (DI) water and then 500 mL of full-strength, nitrogen-free nutrient solution (de Silva et al., 1996) was added prior to planting. Pots were inoculated with approximately 1×10^7 cells of B. japonicum (USDA 110) at sowing. After emergence, plants were thinned to one per pot and reinoculated with B. japonicum. Plants were well watered by adding deionized (DI) water daily, and each pot received 250 mL of nitrogen-free nutrients weekly after emergence. Day and night temperatures were approximately 30 and 24 C, respectively, and natural illumination was supplemented with 1000 W metal-halide lamps for a day length of 16 h.
Each application was as a postemergence over-the-top spray to soybean plants using a moving-nozzle spray chamber. At each harvest, plants were separated into shoots, roots, and nodules. Nodules were photocopied, and total number of nodules per plant was determined from the photocopies. Plant sections were oven dried at 65 C for 48 h, weighed, and ground to pass a 1-mm sieve. Total nitrogen was determined for shoots and root plus nodule dry matter with a Leco FP-228 Determinator (Leco Corporation, St Joseph, Mich.) by the Agriculture Services Laboratory, University of Arkansas. The experiment consisted of six replications and was repeated. Seed for Run 1 and Run 2 of the experiment were planted on 25 February and 14 April, respectively. […] Treatment means were compared using Fisher's Protected least significant difference (LSD, P≦0.05).

[3] = system: GR soybean cultivars A5901RR and DK5961RR; test: Field experiments at Keiser and Fayetteville, Arkansas: biomass and seed yield; type: in vivo, soybean (Glycine max)
Procedure: Field experiments were conducted at Fayetteville and Keiser, Ark., to evaluate the response of GR soybean cultivars to foliar applications of glyphosate under field conditions susceptible to drought stress. […] Delannay et al. (1995) reported three experiments out of 58 in which yields were less than 1500 kg ha^−1, but there was no indication as to the cause of these low yields. The Fayetteville experiment was conducted on a Pembroke silt loam (Ultic Paleudalfs) on 15-cm-high beds spaced 1 m apart. Water was applied as needed until mid-reproductive development (R5) with sprinkle irrigation. At Keiser the soil was a Sharkey silty-clay (Vertic Haplaquepts), and soybean was planted on a flat seedbed with rows 0.96 m apart. Irrigation was applied with an overhead, lateral-move system.
Experiments at both locations were a factorial of two cultivars and five herbicide treatments in a randomized complete block design with four replications. Plots were four rows wide by 9 m long. […] The seeding rate was 370,000 ha^−1 at both locations.
Herbicides were applied as a broadcast treatment, sprayed over-the-top of the canopy with a CO2-powered backpack sprayer in a volume of 93 L ha^−1. […] All herbicide treatments contained appropriate surfactants. Plants were at V1, V4, and V9 development stages at 7, 21, and 35 DAE application timings, respectively, at both locations. R2 applications were made at 45 and 48 DAE at Fayetteville and Keiser, respectively. Plots were maintained weed free by hand weeding as needed. Four replications of the non-nodulating isoline of the cultivar ‘Lee’ were included at each location as an indicator of plant-available soil nitrogen.
Samples were prepared and analyzed for total nitrogen as previously described. Seed yield was determined by harvesting 4.5 m from each of the center two rows. Average seed mass was determined from a random sample of 100 seeds. Biomass data were evaluated by comparing the means±standard errors between herbicide treatments within a cultivar and sample date. […]

Wild type USDA 110 = test: Growth in Tulley's media with 5 mM glyphosate, wild type (Example 7); type: cell-based, Bradyrhizobium japonicum
Procedure: Duplicate cultures were evaluated from each of the original colony selections. […] The cultures were allowed to grow for 14 days, and then the OD of each culture was measured.

Strains USDA 123 and 138 = details: 5 mM concentration; cited from earlier work
[4] = Harvest 1 (19 DAE), averaged across runs
[5] = TV5866RR, Harvest 1 (19 DAE), early treatment
[6] = TV5866RR, Harvest 1 (19 DAE), early treatment: foliar 1.68 kg ha^−1 at 5 and 12 DAE

## O=C(O)CNCP(=O)(O)O [glyphosate, N-(phosphonomethyl)glycine]
[1]
  Shoot mass effect: decreased
[1]; A4501RR, E + L treatment
  Biomass Nodule: 0.47 g plant^−1
  Biomass Root: 1.22 g plant^−1
  Biomass Shoot: 4.55 g plant^−1
  Nitrogen Root: 45 mg plant^−1
  Nitrogen Shoot: 185 mg plant^−1
[1]; A5901RR
  Nodule biomass effect: increased
[1]; A5901RR, E + L treatment
  Biomass Nodule: 0.54 g plant^−1
  Biomass Root: 0.93 g plant^−1
  Biomass Shoot: 4.03 g plant^−1
  Nitrogen Root: 45 mg plant^−1
  Nitrogen Shoot: 163 mg plant^−1
[1]; DK5961RR
  Nodule mass effect: decreased
[1]; DK5961RR, E + L treatment
  Biomass Nodule: 0.40 g plant^−1
  Biomass Root: 0.74 g plant^−1
  Biomass Shoot: 3.41 g plant^−1
  Nitrogen Root: 31 mg plant^−1
  Nitrogen Shoot: 142 mg plant^−1
[1]; H5164RR, E + L treatment
  Biomass Nodule: 0.47 g plant^−1
  Biomass Root: 1.18 g plant^−1
  Biomass Shoot: 4.36 g plant^−1
  Nitrogen Root: 46 mg plant^−1
  Nitrogen Shoot: 170 mg plant^−1
[1]; TV5866RR, E + L treatment
  Biomass Root: 0.71 g plant^−1
  Biomass Shoot: 3.07 g plant^−1
  Nitrogen Root: 35 mg plant^−1
  Nitrogen Shoot: 131 mg plant^−1
[1]; TV5866RR, E + L: 1.68 kg ai ha^−1 at 5, 10, 18, 25, and 32 DAE
  Biomass Nodule: 0.34 g plant^−1
[1]; cultivars A5901RR or H5164RR
  Measured biomass or nitrogen parameters: None of the measured biomass or nitrogen parameters were decreased
[2]; Harvest 1 (19 DAE)
  Number of nodules per plant vs untreated: no difference
[2]; [4]
  Nitrogen accumulation decrease in roots: 36%
  Nitrogen accumulation decrease in shoots: 34%
[2]; Harvest 1, Run 2, 19 DAE
  Nodule mass effect: not affected
[2]; Harvest 1, Run 1
  Total nodule weight decrease: 34%
[2]; Early treatment, Run 1
  Nodules per plant Run 1: 138 number
[2]; Early treatment, Run 2
  Individual nodule mass Run 2: 1.70 mg nodule^−1
  Nodules per plant Run 2: 256 number
[2]; Early: 1.68 kg ha^−1 on 5 and 12 DAE, Run 1
  Individual nodule mass Run 1: 2.73 mg nodule^−1
[2]; Late treatment, Run 1
  Nodules per plant Run 1: 150 number
[2]; Late treatment, Run 2
  Individual nodule mass Run 2: 2.00 mg nodule^−1
  Nodules per plant Run 2: 209 number
[2]; Late: 1.68 kg ha^−1 on 18, 25, and 32 DAE, Run 1
  Individual nodule mass Run 1: 2.79 mg nodule^−1
[2]; TV5866RR, Harvest 1
  Root biomass effect: not decreased
[2]; TV5866RR, Harvest 1 (19 DAE)
  Shoot biomass decrease: 17%
[2]; [5]
  Nitrogen Root: 4.2 mg plant^−1
  Nitrogen Shoot: 8.9 mg plant^−1
[2]; [6]
  Biomass Root: 0.17 g plant^−1
  Biomass Shoot: 0.40 g plant^−1
[2]; TV5866RR, Harvest 1 (19 DAE), early treatment, Run 1
  Biomass Nodules Run 1: 0.043 g plant^−1
[2]; TV5866RR, Harvest 1 (19 DAE), early treatment, Run 2
  Biomass Nodules Run 2: 0.088 g plant^−1
[2]; between 12 and 20 DAE
  Visual observation of plants: yellowed
[2]; by 40 DAE in Run 2
  Effect on plant mass, plant color, or plant N content: no apparent effect
[3]; Fayetteville, A5901RR, glyphosate 1: 7 & 21 DAE
  Soybean seed yield: 2053a kg ha^−1
[3]; Fayetteville, A5901RR, glyphosate 2: 7 & 49 DAE
  Soybean seed yield: 2057a kg ha^−1
[3]; Fayetteville, A5901RR, glyphosate 3: 21 & 35 DAE
  Soybean seed yield: 1999a kg ha^−1
[3]; Fayetteville, DK5961RR, glyphosate 1: 7 & 21 DAE
  Soybean seed yield: 1854a kg ha^−1
[3]; Fayetteville, DK5961RR, glyphosate 2: 7 & 49 DAE
  Soybean seed yield: 1798a kg ha^−1
[3]; Fayetteville, DK5961RR, glyphosate 3: 21 & 35 DAE
  Soybean seed yield: 1992a kg ha^−1
[3]; Keiser, A5901RR, 92 DAE
  Biomass vs untreated check: significantly less biomass
[3]; Keiser, A5901RR, glyphosate 1: 1.68 kg ha^−1 at 7 & 21 DAE
  Soybean seed yield: 974b kg ha^−1
[3]; Keiser, A5901RR, glyphosate 2: 1.68 kg ha^−1 at 7 & 49 DAE
  Soybean seed yield: 1138ab kg ha^−1
[3]; Keiser, A5901RR, glyphosate 3: 1.68 kg ha^−1 at 21 & 35 DAE
  Soybean seed yield: 1050ab kg ha^−1
[3]; Keiser, A5901RR, glyphosate at 7 followed by 21 DAE
  Yield vs check: significantly lower yield
[3]; Keiser, DK5961RR, 92 DAE, glyphosate at 7 followed by 21 DAE or at 7 followed by 49 DAE
  Biomass vs other treatments: tended to be lower
[3]; Keiser, DK5961RR, glyphosate 1: 7 & 21 DAE
  Soybean seed yield: 1197ab kg ha^−1
[3]; Keiser, DK5961RR, glyphosate 2: 7 & 49 DAE
  Soybean seed yield: 989b kg ha^−1
[3]; Keiser, DK5961RR, glyphosate 3: 21 & 35 DAE
  Soybean seed yield: 1291a kg ha^−1
[3]; Keiser, DK5961RR, glyphosate at 7 followed by 21 DAE
  Yield decrease: 24%
[3]; Keiser, DK5961RR, glyphosate at 7 followed by 49 DAE
  Yield lower than untreated check: 8%
[3]; Keiser, DK5961RR, other glyphosate and standard herbicide treatments
  Seed yields vs untreated check: numerically equal to the untreated check
Wild type USDA 110; 14 days
  Growth, % of USDA 110 in the absence of glyphosate: 33%
Wild type USDA 110; USDA 110, after 14 days
  OD600: 0.44 b^
Strains USDA 123 and 138
  Inhibition: 100%
